Measured values reported in US7615555B2, “Piperidine derivatives as modulators of chemokine receptor CCR5” (AstraZeneca AB, priority 2004, dated 2009).
pIC50: −log10 of the molar value.

Legend:
[1] = molecular target: recombinant human CCR5 receptor (Homo sapiens, UniProt P51681); assay: in vitro radioligand binding assay: inhibition of MIP-1α binding; settings: displacement of 0.1 nM iodinated MIP-1α; membranes from Chinese hamster ovary cells expressing recombinant human CCR5; scintillation proximity; average if tested more than once
Sequence of recombinant human CCR5 receptor (P51681 whole entry): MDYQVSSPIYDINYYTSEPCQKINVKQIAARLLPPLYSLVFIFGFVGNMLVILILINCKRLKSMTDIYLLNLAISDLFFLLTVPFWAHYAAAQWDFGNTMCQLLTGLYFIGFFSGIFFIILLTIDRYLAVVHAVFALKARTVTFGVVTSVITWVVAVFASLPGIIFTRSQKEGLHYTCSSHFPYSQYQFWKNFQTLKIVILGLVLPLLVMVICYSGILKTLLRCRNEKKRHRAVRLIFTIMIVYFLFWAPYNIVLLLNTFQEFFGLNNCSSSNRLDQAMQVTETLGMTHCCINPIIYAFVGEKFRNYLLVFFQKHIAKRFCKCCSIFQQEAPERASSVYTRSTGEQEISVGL
Procedure: The ability of compounds to inhibit the binding of MIP-1α was assessed by an in vitro radioligand binding assay. Membranes were prepared from Chinese hamster ovary cells which expressed the recombinant human CCR5 receptor. These membranes were incubated with 0.1 nM iodinated MIP-1α, scintillation proximity beads and various concentrations of the compounds of the invention in 96-well plates. The amount of iodinated MIP-1α bound to the receptor was determined by scintillation counting. Competition curves were obtained for compounds and the concentration of compound which displaced 50% of bound iodinated MIP-1α was calculated (IC50).
In Table XII the results are presented as Pic50 values. A Pic50 value is the negative log (to base 10) of the IC50 result, so an IC50 of 1 μM (that is 1×10^−6M) gives a Pic50 of 6. If a compound was tested more than once then the data below is an average of the probative tests results.

Compound `CCS(=O)(=O)N1CCN(C(CCN2CCC(n3cnc4cc(S(C)(=O)=O)ccc43)CC2)c2ccccc2)CC1` (stereo not shown) [Table I Compound 1, 1-(1-{3-[4-(ethylsulfonyl)piperazin-1-yl]-3-phenylpropyl}piperidin-4-yl)-5-(methylsulfonyl)-1H-benzimidazole] has a pIC50 [1] of 6.60.

Compound `Cc1nnc(C(C)C)n1C1CCN(CC[C@@H](c2ccccc2)N2CCN(S(=O)(=O)c3ccccc3)CC2)CC1` [Table II Compound 1, 1-{(1S)-3-[4-(3-isopropyl-5-methyl-4H-1,2,4-triazol-4-yl)piperidin-1-yl]-1-phenylpropyl}-4-(phenylsulfonyl)piperazine] has a pIC50 [1] of 7.50.

`CS(=O)(=O)c1ccc2c(c1)ncn2C1CCN(CC[C@@H](c2cc(F)cc(F)c2)C2CCN(S(C)(=O)=O)CC2)CC1` [Table II Compound 5, 1-(1-{(3R)-3-(3,5-difluorophenyl)-3-[1-(methylsulfonyl)piperidin-4-yl]propyl}piperidin-4-yl)-5-(methylsulfonyl)-1H-benzimidazole] showed a melting point of 161 °C and a pIC50 [1] of 9.30.
